Laboratory results taken from US10884004B2, “Taggable fluorescent probe for calcium ion detection” (The University of Tokyo, priority 2016, dated 2021).

Assays:
[1] = in vitro Ca2+ titration of the esterase hydrolysate of Compound 14 in Ca2+ buffer (spectrofluorophotometer); assay type: binding; conditions: hydrolysate obtained by esterase treatment; buffer with adjusted Ca2+ concentration (100 mM KCl, 30 mM MOPS)
Description: A 100 μL PBS solution containing Compound 14 (final concentration 80 μM), Pluronic F127 (0.2%), and Esterase Pseudomonas fluorescens (0.42 units/μL) (SIGMA) was prepared and hydrolysis reaction was carried out at 37° C. To follow the time course of the reaction, a part of the sample was taken during the reaction and the fluorescence intensity in 10 mM Ca^2+ buffer was measured with a spectrofluorophotometer (JASCO, FP-6500). When the fluorescence intensity ceased to change almost completely, the reaction was stopped to obtain a hydrolysate of Compound 14.
A free Ca^2+ concentration in a buffer containing 100 mM KCl and 30 mM 3-morpholinopropanesulfonic acid (MOPS) was adjusted using a Ca-ethylene glycol tetraacetic acid (EGTA) system (0-1 μM), a Ca-nitrilotriacetic acid (NTA) system (3.2 μM-794.3 μM), an unbuffered system (CaCl2) (3.2 mM-10 mM). The adjustment of free Ca^2+ concentration in the Ca-EGTA system or in the Ca-NTA system was carried out using the following formula (1). […]
In order to evaluate the chemical characteristics of the synthesized Compound 14, a hydrolysate was obtained by esterase treatment according to the above method, and the fluorescence intensity in a buffer in which the Ca^2+ concentration was adjusted was measured with a spectrofluorophotometer.

[2] = tested on: Rat hippocampus-derived nerve cells; experiment: Ca2+ imaging on electrical stimulation of probe-labeled hippocampus-derived nerve cells; assay type: cell-based; conditions: electrical stimulation 10 times at 100 Hz; HaloTag fusion protein expressed in nerve cells
Description: (§1) HEK 293T cells (GenHunter) were cultured in Dulbecco's Modified Eagle's Medium (DMEM) (Wako) containing 10% FBS, 4 mM L-glutamine (Wako), and 1 mM sodium pyruvate (Wako) at 37° C. in an atmosphere of 5% CO2. For nerve cells, a fetus was removed from Sprague-Dawley rat on day 21 of pregnancy under anesthesia, and the hippocampus immediately extracted from the fetal brain was digested with trypsin (Invitrogen) and DNase I (Sigma) to separate nerve cells. The nerve cells were cultured on a monolayer of glial cells in a Neurobasal A medium (Invitrogen) containing 2% B-27 supplement (Invitrogen), 1 mM sodium pyruvate (Wako), 1% glutamax (Invitrogen), 1% penicillin-streptomycin mixed solution (nacalai tesque) at 37° C. in an atmosphere of 5% CO2.
A DNA fragment obtained by fusing a sequence encoding a HaloTag protein in series on the C-terminal side of the DNA sequence encoding the vesicular membrane […] transporter (VGLUT1) was subcloned into a lentiviral vector (pLenti6PW) to prepare pLenti vglut1-chalo. […]
(§2) Fluorescence images were acquired using an inverted microscope (IX-71, Olympus), an EM-CCD camera (Andor, iXon), an objective lens ([…]), and a filter set for RFP. […]

[3] = in situ calibration of the labeled probe in fixed, permeabilized HEK 293T/Halo-RimZF-CAAX; assay type: cell-based; conditions: probe labeled on HEK 293T/Halo-RimZF-CAAX, 4% PFA fixed, 20 μM digitonin
Description: (§3) HEK 293T cells were seeded in metal rings on a cover glass coated with 0.01% collagen and 25 μg/ml poly-L-lysine (nacalai tesque) 16 hours after gene transfer so that the number of cells per ring was 40,000 and cultured at 37° C. and a carbon dioxide concentration of 5%. Three and a half hours later, the extracellular fluid was replaced with Ringer's solution (5 mM HEPES, 150 mM NaCl, 4 mM KCl, 2 mM CaCl2, 1 mM MgCl2, 0.1% glucose, pH 7.2) containing a Ca^2+ probe (compound 14 or Calcium Green, AM (Invitrogen)) or a fluorescent ligand (halo TMR, halo Oregon) (final concentration 5 μM) and 0.02% Plulonic F127 and left to stand at room temperature for 30 minutes while being shielded from light. The cells labeled with compound 14 and the fluorescent ligand was then exchanged with serum-free DMEM, removal of probes that were liberated at 5% carbon dioxide concentration and 37° C. was carried out for 30 minutes, and the extracellular solution was exchanged again with Ringer's solution. […]
The labeled HEK 293T/Halo-RimZF-CAAX was immobilized with 4% PFA/PBS for 10 minutes, subjected to membrane permeabilization with 20 μM digitonin, and a change in fluorescence when the Ca^2+ concentration of the extracellular solution was changed was measured.
Next, Ca^2+ response characteristics of the labeled probe were evaluated by in situ calibration.

HEK 293T/Halo-RimZF-CAAX [4] = experiment: staining / localization in HEK 293T cells expressing HaloTag protein on the cell membrane; assay type: cell-based; conditions: 5 μM probe, Ringer's solution, 30 minutes, room temperature
Description: as §1
Next, a DNA fragment encoding HaloTag and a DNA fragment encoding RimZF were fused by PCR. At this time, a DNA fragment expressing a fusion protein of HaloTag, RimZF, and CAAX motif was obtained by adding a DNA sequence encoding a CAAX motif of the KRas gene (KMSKDGKKKKKKSKTKC-VIM) to the primer. […]
as §2

HEK 293T/Halo-RimZF-CAAX [5] = experiment: Ca2+ imaging on ionomycin stimulation of probe-labeled HEK 293T/Halo-RimZF-CAAX; assay type: cell-based; conditions: ionomycin (10 μM); local Ca2+ signal on the cell membrane
Description: as §3, with “light.” for “light. The cells labeled with compound 14 and the fluorescent ligand was then exchanged with serum-free DMEM, removal of probes that were liberated at 5% carbon dioxide concentration and 37° C. was carried out for 30 minutes, and the extracellular solution was exchanged again with Ringer's solution.”
as §2
In addition, ionomycin was added to a probe-labeled HEK 293T/Halo-RimZF-CAAX in order to see the response characteristics to the Ca^2+ signal induced by the ionophore, and then changes with time of the fluorescence intensity were measured (FIG. 5). […]

SMILES: CC(=O)OCOC(=O)COc1cc(NC(=O)c2ccc3c(c2)C(=O)OC32c3cc(Cl)c(OC(C)=O)cc3Oc3cc(N4CC(C(=O)NCCOCCOCCCCCCCl)C4)c(Cl)cc32)ccc1N(CC(=O)OCOC(C)=O)CC(=O)OCOC(C)=O (centres unmarked) [Compound 14, bis(acetoxymethyl) 2,2′-((4-(3′-acetoxy-2′,7′-dichloro-6′-(3-((2-(2-((6-chlorohexyl)oxy)ethoxy)ethyl)carbamoyl)azetidin-1-yl)-3-oxo-3H-spiro[isobenzofuran-1,9′-xanthene]-5-carboxylic acid amido)-2-(2-(acetoxymethoxy)-2-oxoethoxy)phenyl)azanediyl) diacetate]
- Fmax/Fmin (fluorescence intensity of Ca2+-bound vs unbound probe) [1]: 10.8
- Ca2+ signal change on electrical stimulation [2]: a Ca^2+ signal change corresponding to the stimulus was observed
- Fmax/Fmin [3]: 4.7
- localization of fluorescence after staining (HEK 293T/Halo-RimZF-CAAX [4]): fluorescence localized on the cell membrane on which the HaloTag protein is expressed was observed
- change in fluorescence intensity due to ionomycin stimulation (HEK 293T/Halo-RimZF-CAAX [5]): increased the fluorescence intensity
